Data taken from patent publication US6835736B1, “Discorhabdin compounds and methods of use” (Harbor Branch Oceanographic Institution, Inc., priority 2003, dated 2004).

Legend:
Assay type in all cases: cell-based
[1] = system: PANC-1 human pancreatic cell line; assay: Antiproliferative MTT assay, PANC-1 cells; settings: additional 48 hour exposure
Method: (§1) Extracts and compounds were analyzed as to their effects on proliferation of A549 human adenocarcinoma, PANC-1 human pancreatic and P388 murine leukemia cell lines. P388 and NCI/ADR cells were obtained from Dr. R. Camalier, National Cancer Institute, Bethesda, Md., and A549 and PANC-1 cells were obtained from American Type Culture Collection, Rockville, Md. All cell lines were maintained in Roswell Park Memorial Institute (RPMI) medium 1640 supplemented with 10% fetal bovine sernm. All cell lines are cultured in plastic tissue culture flasks and kept in an incubator at 37° C. in humidified air containing 5% CO2. Prior to testing, antibiotic-free stock cultures of each of the cell lines were subcultured to […] by dilution in fresh growth medium at 2 to 3 day intervals.
(§2) To assess the antiproliferative effects of extracts and compounds against the P388 cell line, 200 μl cultures (96-well tissue culture plates, Nunc, Denmark) are established at 1×10^5 cells/ml in drug-free medium or medium containing the test agent at 10.0, 1.0, 0.10 and 0.010 μg/ml. Solvent for all dilutions ethanol. All experimental cultures are initiated in medium containing gentamycin su fate (50 μg/ml; Schering Corporation, Kenilworth, N.J.). After 48-h exposures, P388 cells are enumerated using 3-[4,5-dimethylthiazol-2-yl]-2,5-diphenyltetrazolium bromide (MTT) as described below (M. C. Alley et al., 1988, Cancer Res. 48:589.
(§3) Similar procedures are utilized for A549 and PANC-1 cells which require an additional 48 hour exposure prior to MTT addition. Results are expressed as percent inhibition compared to the negative (no drug) control. Positive drug controls are included to monitor drug sensitivity of each of the cell lines. These include varying dilutions of 5-fluorouracil and adriamycin.
(§4) To quantitate the effects of pure compounds on cell proliferation and resulting IC50 values, 75 μl of warm growth media containing 5 mg/ml MTT is added to each well, cultures returned to the incubator, and left undisturbed for 90 minutes. […]

[2] = system: P388 murine leukemia cell line; assay: Antiproliferative MTT assay, P388 cells; settings: Mus musculus, 48-h exposure, read-out: Activity (IC50) P-388
Method: as §1, §2
(§5) To quantitate the effects of pure compounds on cell proliferation and resulting IC50 values, 75 μl of warm growth media containing 5 mg/ml MTT is added to each well, cultures returned to the incubator, and left undisturbed for 90 minutes. To spectrophotometrically quantitate formation of reduced formazan, plates are centrifuged (900×g, 5 minutes), culture fluids removed by aspiration, and 200 μl of acidified isopropanol (2 ml concentrated HCl/liter isopropanol) added per well. The absorbance of the resulting solutions is measured at 570 nm with a plate reader (TECAN Spectra II Plate Reader, TECAN U.S., Research Triangle Park, NC). […]

[3] = system: A549 human adenocarcinoma cell line; assay: Antiproliferative MTT assay, A549 cells; settings: additional 48 hour exposure
Method: as §1, §2, §3, §4

NCI/ADR cells = assay: Antiproliferative MTT assay, NCI/ADR cells; settings: Homo sapiens, NCI/ADR-RES
Method: as §1, §5

Row | Structure (SMILES) | IC50 [1] [µg/mL] | IC50 [2] [µg/mL] | IC50 [3] [µg/mL] | IC50 (NCI/ADR cells) [µg/mL]
1 | CSC1=CC(=O)C(Br)=CC12CCNC1=C2c2nccc3cn(C)c(c23)C1=O (stereo not drawn) [Discorhabdin S] | 2.6 | 3.08 | > 5 | > 5
2 | CSC1=CC(=O)C(Br)=CC12C=CNC1=C2c2nccc3cn(C)c(c23)C1=O (stereo not drawn) [Discorhabdin T] | 0.7 | > 5 | > 5 | > 5
3 | CSC1=CC(=O)C(Br)=CC12C=CNC1=C2C2=NCCc3cn(C)c(c32)C1=O (stereo not drawn) [Discorhabdin U] | 0.069 | 0.17 | 0.34 | 0.22
